Assay results reported in PubChem BioAssay (NCI).
Values joined by “and” are separate entries in the source; they are usually repeats but may differ in a detail not shown here. Equal entries are not always repeated.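 Growth conditions: 96-well plates. Treatment: test compound, 48 hours, 5 concentrations. Analysis: linear interpolation between bracketing concentrations; unreached endpoints set to highest concentration. GI50 marks 50% less growth. TGI marks complete inhibition of growth.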

Tests used:
Assay in all cases: inhibition of tumour cell growth, NCI panel, 48 h
COLO 205 colon = system: COLO 205 colon
EKVX NSCLC = system: EKVX NSCLC
IGROV1 ovarian = system: IGROV1 ovarian
NCI-H522 lung = system: NCI-H522 lung
OVCAR-3 ovarian = system: OVCAR-3 ovarian
OVCAR-4 ovarian = system: OVCAR-4 ovarian
SF-295 CNS = system: SF-295 CNS
BT-549 breast = system: BT-549 breast
HCT-15 colon = system: HCT-15 colon
MCF7 breast = system: MCF7 breast

Row | Structure (SMILES) | TGI (COLO 205 colon) | TGI (EKVX NSCLC) | TGI (IGROV1 ovarian) | TGI (NCI-H522 lung) | TGI (OVCAR-3 ovarian) | TGI (OVCAR-4 ovarian) | TGI (SF-295 CNS) | GI50 (BT-549 breast) | TGI (BT-549 breast) | GI50 (COLO 205 colon) | GI50 (HCT-15 colon) | TGI (HCT-15 colon) | GI50 (IGROV1 ovarian) | GI50 (MCF7 breast) | TGI (MCF7 breast) | GI50 (NCI-H522 lung) | GI50 (OVCAR-3 ovarian) | GI50 (OVCAR-4 ovarian) | GI50 (EKVX NSCLC) | GI50 (SF-295 CNS)
1 | COc1cc(/C=C2/C(=O)N(C(=O)OC(C)C)C(Cc3cc(OC)c(OC)c(C)c3OC)C(=O)N2Cc2ccccc2)c(OC)c(C)c1OC (stereo unspecified) | > 100 µM | > 100 µM | > 100 µM | 32 µM | > 100 µM | > 100 µM | > 100 µM | – | – | – | – | – | – | – | – | – | – | – | – | –
2 | CC[C@H](C)[C@H]1NC(=O)[C@@H](N[C@](C)(O)[C@@H](N)CC(C)C)[C@@H](C)OC(=O)[C@H](Cc2ccc(OC)cc2)N(C)C(=O)[C@@H]2CCCN2C(=O)[C@H](CC(C)C)NC(=O)[C@@H](C)C(=O)[C@H](C(C)C)OC(=O)C[C@@H]1O | 0.073 µM | – | 0.413 µM | 0.143 µM | 0.232 µM | 0.365 µM | – | 0.0195 µM | 0.406 µM | 0.0108 µM | 0.217 µM | 22.9 µM | 0.0133 µM | 0.00735 µM | 0.166 µM | 0.0114 µM | 0.0178 µM | 0.0189 µM | – | –
3 | COc1ccc(C(=O)OCC2OC(n3cnc4c(=S)nc[nH]c43)C(OC(=O)c3ccc(OC)cc3)C2OC(=O)c2ccc(OC)cc2)cc1 (stereo unspecified) | > 100 µM | – | > 100 µM | 54.5 µM | > 100 µM | > 100 µM | > 100 µM | – | – | – | – | > 100 µM | – | – | – | – | – | – | – | –
4 | CCOC(=O)C12CCCC1(O)N(NC(=O)c1ccccc1)C(C)=C2C(=O)OC (stereo unspecified) | > 100 µM | > 100 µM | > 100 µM | > 100 µM | > 100 µM | > 100 µM | > 100 µM | – | – | – | – | > 100 µM | – | – | – | – | – | – | – | –
5 | COC(=O)C1=C2CCC(=O)[C@@]2(C)C(OC(C)=O)C=CC1 (stereo partly specified) | – | > 100 µM | > 100 µM | – | > 100 µM | > 100 µM | > 100 µM | – | – | – | – | 87.3 µM | – | – | – | – | – | – | – | –
6 | O=C(O)C(CP(=O)(O)O)=C(Cl)Cl | > 100 µM | > 100 µM | > 100 µM | – | > 100 µM | – | > 100 µM | – | – | – | – | > 100 µM | – | – | – | – | – | – | – | –
7 | COc1ccc2c(c1)c(-c1ccc(-c3cn(S(=O)(=O)c4ccccc4)c4ccc(OC)cc34)s1)cn2S(=O)(=O)c1ccccc1 | > 100 µM | > 100 µM | > 100 µM | > 100 µM | > 100 µM | > 100 µM | > 100 µM | – | – | > 100 µM | > 100 µM | > 100 µM | > 100 µM | > 100 µM | > 100 µM | > 100 µM | > 100 µM | > 100 µM | > 100 µM | > 100 µM
8 | CC(=O)OC(/C=C1/C=CC(=O)O1)COC(=O)c1ccccc1 (stereo unspecified) | > 31.2 µM | > 31.2 µM | > 31.2 µM | > 31.2 µM | > 31.2 µM | > 31.2 µM | > 31.2 µM | – | – | – | – | – | – | – | – | – | – | – | – | –
9 | COc1ccc2c(=O)c(C)c(-c3ccccc3)oc2c1CN(C)C | > 100 µM | > 100 µM | > 100 µM | > 100 µM | > 100 µM | > 100 µM | > 100 µM | – | – | – | – | > 100 µM | – | – | – | – | – | – | – | –
10 | Cc1ccc(NC(=O)CCC(CC(=O)C(C)(C)C)=NNC(=O)C(=O)NN)cc1C | > 100 µM | > 100 µM | > 100 µM | > 100 µM | > 100 µM | > 100 µM | > 100 µM | – | – | – | – | > 100 µM | – | – | – | – | – | – | – | –
11 | CC1=C(C(=O)Nc2ccc(F)c(Cl)c2)C(c2ccccc2Cl)NC(=S)N1 (stereo unspecified) | > 50 µM | > 50 µM | > 50 µM | > 50 µM | > 50 µM | – | > 50 µM | > 50 µM | > 50 µM | 23.9 µM | 16.2 µM | > 50 µM | 22.8 µM | 21.7 µM | > 50 µM | 35.7 µM | 39.5 µM | – | > 50 µM | 39.8 µM
12 | CCC[CH2][Sn]1([CH2]CCC)[O]C(=O)c2cc(I)cc(I)c2[O]1 | 1.97 µM | 3.4 µM | 3.36 µM | 0.323 µM | 2.77 µM | 2.83 µM | 3.53 µM | – | – | 0.702 µM | 1.28 µM | 2.93 µM | 1.81 µM | – | – | 0.143 µM | 1.42 µM | 1.41 µM | 1.35 µM | 1.91 µM
13 | O=c1cc(-c2cccc(C(F)(F)F)c2)[nH]c2cc3c(cc12)OCO3 | 24 µM and > 100 µM | 50 µM | 50 µM | > 100 µM | – | – | – | 0.359 µM | 50 µM and > 100 µM | 5.1 µM | 0.4 µM | – | – | 0.95 µM | 50 µM and > 100 µM | – | – | – | – | –
14 | COC(=O)/C=C1/CCC2[C@@H](C(=O)CC3[C@]2(C)CCC[C@@]3(C)C(=O)OC)C1C (stereo partly specified) | 18.1 µM | 42.3 µM | 43.6 µM | 19.7 µM | 20.4 µM | 21.6 µM | 33.1 µM | – | – | – | – | 35.9 µM | – | – | – | – | – | – | – | –
15 | CCOC(C)C(/C=N/NC(N)=S)=NNC(N)=S (stereo unspecified) | > 100 µM | > 100 µM | – | > 100 µM | – | > 100 µM | > 100 µM | – | – | – | – | > 100 µM | – | – | – | – | – | – | – | –
16 | COc1cc(/C=C2\[C@H]3c4c(c(OC)c(C)c(OC)c4OC)C[C@@H](C(=O)N2Cc2ccccc2)N3C(=O)OCC(C)C)c(OC)c(C)c1OC | > 100 µM | > 100 µM | > 100 µM | > 100 µM | > 100 µM | > 100 µM | > 100 µM | – | – | – | – | > 100 µM | – | – | – | – | – | – | – | –
17 | O=C1NN(c2ccc(C(=O)O)cc2)C(=O)/C1=C\c1ccc([N+](=O)[O-])o1 | 38.8 µM | > 100 µM | 52.6 µM | 32.8 µM | 42.3 µM | – | > 100 µM | > 100 µM | > 100 µM | 20.9 µM | 20.4 µM | 45.4 µM | 20.5 µM | 22.4 µM | 50.5 µM | 15.7 µM | 20.9 µM | – | > 100 µM | > 100 µM
18 | C/C(=C\C(C)COCc1ccccc1)[C@H](COCc1ccccc1)OCc1ccccc1 (stereo partly specified) | > 100 µM | > 100 µM | > 100 µM | > 100 µM | > 100 µM | > 100 µM | > 100 µM | – | – | – | – | > 100 µM | – | – | – | – | – | – | – | –
19 | O=S(=O)(/C=C/c1ccc(Cl)cc1Cl)Cc1ccccc1CS(=O)(=O)/C=C/c1ccc(Cl)cc1Cl | > 100 µM | > 100 µM | > 100 µM | > 100 µM | > 100 µM | > 100 µM | > 100 µM | – | – | – | – | > 100 µM | – | – | – | – | – | – | – | –
